From patent US20080286387A1, “Standardized method for recovering enriched Indian date extract (IDE), properties of IDE and applications thereof” (priority 2007, published 2008)

Tested on: 5-alpha-reductases
Test: 5-alpha-reductase inhibition
Format: biochemical
Conditions: at a workable concentration of 9 μg/ml; FIG. 4

CC(C)(C)NC(=O)[C@H]1CC[C@H]2[C@@H]3CC[C@H]4NC(=O)C=C[C@]4(C)[C@H]3CC[C@]12C [Finasteride]
inhibition of 5-alpha-reductase: ≤ 13%
